Target: human recombinant, purified wild type His-B-Raf protein kinase (Homo sapiens, UniProt P15056)
Assay: B-Raf In Vitro ELISA Assay
Type: biochemical
Details: phosphorylation of MEK1; 2.5 nM B-Raf, 0.15 μM MEK1, 10 μM ATP; 1 hour preincubation at 25° C.
Method: B-Raf In Vitro ELISA Assay
Activity of human recombinant, purified wild type His-B-Raf protein kinase was determined in vitro using an enzyme-linked immunosorbent assay (ELISA) assay format, which measures phosphorylation of the B-Raf substrate, human recombinant, purified His-derived (detagged) MEK1. The reaction utilized 2.5 nM B-Raf, 0.15 μM MEK1 and 10 μM adenosine triphosphate (ATP) in 40 mM N-(2-hydroxyethyl)piperazine-N′-(2-ethanesulfonic acid hemisodium salt (HEPES), 5 mM 1,4-dithio-DL-threitol (DTT), 10 mM MgCl2, 1 mM ethylenediaminetetraacetic acid (EDTA) and 0.2 M NaCl (1×HEPES buffer), with or without compound at various concentrations, in a total reaction volume of 25 μl in 384 well plates. B-Raf and compound were preincubated in 1×HEPES buffer for 1 hour at 25° C. Reactions were initiated with addition of MEK1 and ATP in 1×HEPES buffer and incubated at 25° C. for 50 minutes and reactions stopped by addition of 10 μl 175 mM EDTA (final concentration 50 mM) in 1×HEPES buffer. 5 μl of the assay mix was then diluted 1:20 into 50 mM EDTA in 1×HEPES buffer, transferred to 384 well black high protein binding plates and incubated overnight at 4° C. Plates were washed in tris buffered saline containing 0.1% Tween20 (TBST), blocked with 50 μl Superblock (Pierce) for 1 hour at 25° C., washed in TBST, incubated with 50 μl rabbit polyclonal anti-phospho-MEK antibody (Cell Signaling) diluted 1:1000 in TBS for 2 hours at 25° C., washed with TBST, incubated with 50 μl goat anti-rabbit horseradish peroxidase-linked antibody (Cell Signaling) diluted 1:2000 in TBS for 1 hour at 25° C. and washed with TBST. 50 μl of fluorogenic peroxidase substrate (Quantablu—Pierce) was added and following incubation for 45-60 minutes, 50 ul QuantabluSTOP (Pierce) was added. Blue fluorescent product was detected at excitation 325 and emission 420 using a TECAN Ultra plate reader. Data was graphed and IC50s calculated using Excel Fit (Microsoft).

human recombinant, purified wild type His-B-Raf protein kinase, sequence (P15056 whole entry): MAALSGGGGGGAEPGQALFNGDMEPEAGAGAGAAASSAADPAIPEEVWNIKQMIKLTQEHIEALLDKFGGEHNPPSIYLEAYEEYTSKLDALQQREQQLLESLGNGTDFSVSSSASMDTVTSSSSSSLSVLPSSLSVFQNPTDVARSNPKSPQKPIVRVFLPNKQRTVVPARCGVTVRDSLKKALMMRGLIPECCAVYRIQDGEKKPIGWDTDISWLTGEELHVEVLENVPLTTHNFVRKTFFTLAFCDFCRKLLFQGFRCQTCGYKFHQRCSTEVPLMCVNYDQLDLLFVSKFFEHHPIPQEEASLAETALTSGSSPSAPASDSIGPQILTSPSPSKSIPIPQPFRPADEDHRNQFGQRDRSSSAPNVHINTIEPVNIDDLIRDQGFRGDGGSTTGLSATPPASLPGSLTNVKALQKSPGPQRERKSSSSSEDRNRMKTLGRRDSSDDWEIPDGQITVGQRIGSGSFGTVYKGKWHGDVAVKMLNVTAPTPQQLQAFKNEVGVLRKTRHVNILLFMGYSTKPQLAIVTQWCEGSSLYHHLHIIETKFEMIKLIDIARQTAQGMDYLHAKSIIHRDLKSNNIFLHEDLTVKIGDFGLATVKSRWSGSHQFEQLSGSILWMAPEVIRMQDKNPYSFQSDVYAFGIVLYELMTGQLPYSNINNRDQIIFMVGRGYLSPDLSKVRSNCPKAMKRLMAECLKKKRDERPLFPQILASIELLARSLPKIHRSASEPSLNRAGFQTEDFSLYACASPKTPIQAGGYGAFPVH

Row | Structure (SMILES) | IC50 [nM]
1 | Cc1ccc(NC(=O)c2cccc(C(F)(F)F)c2)cc1-n1cnc2ccc(OCCN3CCOCC3)cc2c1=O [Example 22, N-{4-Methyl-3-[6-(2-morpholinoethoxy)-4-oxo-4H-quinazolin-3-yl]phenyl}-3-trifluoromethylbenzamide] | 518
2 | Cc1ccc(NC(=O)c2cccc(C(F)(F)F)c2)cc1-n1c(C)nc2ccc(N3CCOCC3)cc2c1=O [Example 14, N-[4-Methyl-3-(2-methyl-6-morpholin-4-yl-4-oxo-4H-quinazolin-3-yl)phenyl]-3-trifluoromethylbenzamide] | 3200
3 | Cc1ccc(NC(=O)c2cccc(C(F)(F)F)c2)cc1-n1cnc2ccc(NCCCN(C)C)cc2c1=O [Example 9, N-{3-[6-(3-Dimethylaminopropylamino)-4-oxo-4H-quinazolin-3-yl]-4-methylphenyl}-3-trifluoromethylbenzamide] | 535

Source: patent US20080275022A1, “Substituted Quinazolones as Anti-Cancer Agents” (AstraZeneca AB, priority 2004, published 2008)
